In series [1] the target is T1, MDA-9/Syntenin (Homo sapiens, UniProt O00560).
T1 construct: made in house
T1 sequence (O00560 1-298): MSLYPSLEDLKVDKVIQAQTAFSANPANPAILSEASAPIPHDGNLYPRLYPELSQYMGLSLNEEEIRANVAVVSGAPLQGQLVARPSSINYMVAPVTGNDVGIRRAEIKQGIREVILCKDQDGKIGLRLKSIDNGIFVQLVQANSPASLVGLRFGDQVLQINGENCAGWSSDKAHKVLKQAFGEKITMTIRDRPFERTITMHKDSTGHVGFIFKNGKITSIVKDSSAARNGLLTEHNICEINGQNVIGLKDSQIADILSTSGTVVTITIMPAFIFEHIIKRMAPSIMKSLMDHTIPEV
Also on record: method as in printed. The note with it: pre-PDZ1i molecules studied en route to the discovery of PDZ1i; ref not given; cited from earlier work.

Series [2] concerns the target T1, MDA-9/Syntenin. Description: Fluorescence polarization titration of ligands into MDA-9/Syntenin. The format is binding. The note with it: 20 mM Tris-HCl, 100 mM NaCl, 0.01% PEG800, 0.05% Tween20, pH 7.4; single-site fit; minimum of two titrations. As to the method:
Spectrofluorimetric titrations were performed on a Horiba QM400 spectrometer (HORIBA Scientific, Piscataway, NJ, USA). Excitation and emission wavelengths of 280 nm and 340 nm (600 nm for the reference emission wavelength) were used, with 5 nm excitation and 12 nm emission band widths, as described earlier. Experiments were performed in ratiometric mode, with excitation and emission polarizers set to 0,0 angles at room temperature. The titration buffer was 20 mM Tris-HCl buffer, pH 7.4. The stock concentrations of protein and ligands were 40 and 300–1000 μM, respectively. Whereas the protein was prepared in the titration buffer, the ligands were prepared in DMSO. The ligands (either URD001, NGI03, or NVS125) were titrated into the protein solution in aliquots, and saturable changes in fluorescence polarization were used to calculate the affinity. […] The emission intensities were corrected for dilution effects (<10% overall). The observed change in fluorescence polarization relative to initial signal (F0) was fitted using a standard single-site binding model to obtain the dissociation constant (KD) and the maximal change in fluorescence polarization (ΔF) at saturation.
We then explored fluorescence polarization (λEX = 280 nm, λEM = 340 nm; λREF = 600 nm) in 20 mM Tris-HCl containing 100 mM NaCl, 0.01% PEG800, and 0.05% Tween20, pH 7.4. Polarization relies on the change in molecular diffusion of the protein in the presence of a ligand as a probe of interaction. This technique worked well for PDZ1i, which presented a classic hyperbolic binding profile. […] For NGI03 and URD001, KDs of 1.1 and 3.0 μM, respectively, were measured. […] This implies that no reliable fit of the data could be obtained. Yet, based on the profile, the KD is likely to be more than 200 μM.
A general note: Fluorescence polarisation rises when a labelled molecule tumbles more slowly, as on binding a larger partner.

The nature of series [3]: Aqueous solubility (qualitative). It counts as physicochemical. The note with it: authors' observation.
The target in series [4] is T1, MDA-9/Syntenin. The note with it: cited from earlier work.
Details of series [5]: method as in printed. The note with it: stated in introduction; ref not given; cited from earlier work.

Several values for one entry are separate records, joined by “and”; a condition that tells them apart may be missing. Equal values may be shown once. Read-outs that look alike come from different tables or passages of the source. Bounds are passed on as bounds.

Results on 19 compounds are retold here after PMC11505911, “Design and Synthesis of Small Molecule Probes of MDA-9/Syntenin” (Biomolecules, 2024).

Broadly, the IC50 is the concentration at which inhibition is half-maximal. As usually defined, the Kd is a measure of binding affinity in units of concentration.

As to `Cc1cc(=O)n2nc(COc3ccccc3)nc2[nH]1` [30A9], the IC50 on MDA-9/Syntenin [1] was 197 µM.
`Cc1cc(=O)n2nc(C(=O)Nc3ccc(O)cc3)nc2[nH]1` [112D11]: the IC50 at MDA-9/Syntenin [1] is 245 µM.
Regarding `Cc1cc(=O)n2nc(C(=O)Nc3ccc(N)cc3)nc2[nH]1` [112E7], the IC50 on MDA-9/Syntenin [1] is 944 µM.
On to `O=C(Nc1ccc(O)cc1)c1nc2[nH]c3c(c(=O)n2n1)CCC3` [112E12], for which the IC50 at MDA-9/Syntenin [1] was 1610 µM.
In the case of `O=C(Nc1ccc(O)c(F)c1)c1nc2[nH]c3c(c(=O)n2n1)CCC3` [112F12], the IC50 on MDA-9/Syntenin [1] is 166 µM.
Regarding `Cc1cc(=O)n2nc(C(=O)Nc3cc(Cl)c(O)c(Cl)c3)nc2[nH]1` [112G1], the IC50 on MDA-9/Syntenin [1] is 57.3 µM.
`Cc1cc(=O)n2nc(C(=O)Nc3ccc(O)c(F)c3)nc2[nH]1` [112G2]: the IC50 at MDA-9/Syntenin [1] is 147 µM.
Turning to `O=C(Nc1ccc(O)c(Cl)c1)c1nc2[nH]c3c(c(=O)n2n1)CCC3` [112G3], the 50% inhibitory concentration (IC50) at MDA-9/Syntenin [1] is 119 µM.
With `Cc1cc(=O)n2nc(C(=O)Nc3cc(Cl)c(N)c(Cl)c3)nc2[nH]1` [112G4], the IC50 on MDA-9/Syntenin [1] was 34.3 µM.
For the compound `Nc1ccc(NC(=O)c2nc3[nH]c4c(c(=O)n3n2)CCC4)cc1` [112G11], on MDA-9/Syntenin [1], the IC50 is 263 µM.
With `Cc1c(C)c(NC(=O)c2nc3[nH]c4c(c(=O)n3n2)CCC4)c(C)c(C)c1N` [113B8], at MDA-9/Syntenin [1], the IC50 is 151 µM.
For `Cc1cc(NC(=O)OC(C)(C)C)c(C)cc1CCCC(c1nnc(-c2ccccc2)o1)c1nnc(-c2ccccc2)o1` [CMPD10], the 50% inhibitory concentration (IC50) on MDA-9/Syntenin [1] was 151 µM.
In turn, `Cc1cc(NC(=O)c2nc3[nH]c4c(c(=O)n3n2)CCC4)c(C)cc1NC(=O)CC(c1nnc(-c2ccccc2)o1)c1nnc(-c2ccccc2)o1` [NGI03, N-(4-(3,3-bis(5-phenyl-1,3,4-oxadiazol-2-yl)propanamido)-2,5-dimethylphenyl)-8-oxo-5,6,7,8-tetrahydro-4H-cyclopenta[d][1,2,4]triazolo[1,5-a]pyrimidine-2-carboxamide] had a Kd at MDA-9/Syntenin [2] of 1.1 µM. For the same compound, the aqueous solubility entry in series [3] is listed as “aqueous solubility issues”.
For the compound `Cc1ccc(-c2nnc(CCC(=O)Cc3cc(C)c(C(=O)O)cc3C)o2)cc1` [NVS125], the equilibrium dissociation constant (Kd) at MDA-9/Syntenin [2] is above 200 µM. The aqueous solubility entry in series [3] is on record as “good aqueous solubility”.
Regarding `Cc1cc(NC(=O)c2nc3[nH]c4c(c(=O)n3n2)CCC4)c(C)cc1NC(=O)CCc1nnc(-c2ccccc2)o1` [PDZ1i], the dissociation constant Kd is 78 µM and ~78 µM on MDA-9/Syntenin [2]; 60 to 70 µM at MDA-9/Syntenin [4] (binding domain PDZ1). The aqueous solubility result in series [5] is given as “poor aqueous solubility”.
`Cc1cc(NC(=O)c2nc3[nH]c4c(c(=O)n3n2)CCC4)c(C)cc1CCCC(c1nnc(-c2ccccc2)o1)c1nnc(-c2ccccc2)o1` [URD001, N-(4-(4,4-bis(5-phenyl-1,3,4-oxadiazol-2-yl)butyl)-2,5-dimethylphenyl)-8-oxo-5,6,7,8-tetrahydro-4H-cyclopenta[d][1,2,4]triazolo [1,5-a]pyrimidine-2-carboxamide] came in with a Kd at MDA-9/Syntenin [2] of 3 µM. Further, the aqueous solubility entry in series [3] is reported as “aqueous solubility issues”.
“Ephrin hexapeptide: hexapeptide epitope from ephrin B binding the PDZ2 domain (NIYYKV; Paralogue and species inferred; terminal caps unknown)”: in the series with MDA-9/Syntenin [4] (binding domain PDZ2), the Kd is 790 µM.
As for “IVMT-Rx-3: polyethylene glycol conjugation from truncated PDZ1i with a PDZ2-binding hexapeptide (TNEYYF)”, the Kd with MDA-9/Syntenin [4] (binding domain PDZ1, PDZ2) is 63 µM.
As to “Neurexin hexapeptide: hexapeptide epitope from neurexin binding the PDZ2 domain (TNEYYV)”, the Kd in the series with MDA-9/Syntenin [4] (binding domain PDZ2) was 100 µM.
